Test results: patent US7951844B2, “Tranquilizer and functional food” (J-Oil Mills, Inc., priority 2007, dated 2011)
Where a name gives a salt, the structure may show the parent alone.

Assays:
[1] = system: fear-conditioned mice; assay: fear condition-induced akinesia time (conditioned-fear measurement system); type: in vivo, mouse; settings: for akinesia time (for every 60 seconds) compared to the control group, two-way analysis of variance: 30 mg/kg oral for 7 days, P<0.01 (menaquinone-4), P<0.05 (menaquinone-7); for akinesia time (% of freezing), period from 0 to 60 seconds / akinesia time (% of freezing), period from 180 to 240 seconds: male C57BL/6 mice, 30 mg/kg oral forced feeding for 7 days, measured 2 h after final administration, mean of 10 mice
From the text: A stimulus from the outside enters the brain through the sense organs, and is sent to the amygdaloid body and the hippocampus-lateral septum system, where it is judged if the stimulus is beneficial or harmful. (The judgment is referred to as “biological value evaluation”). The information that has been evaluated is stored in the amygdaloid body and the hippocampus. At the same time, biological response occurs, and biological response is visually recognized by an observer as emotional expression. A human and an animal learn (acquire) information on the biological value evaluation they gained through their experiences. When they receive the same stimulus, the stimulus is compared in the amygdaloid body and the hippocampus-lateral septum system. The response that occurs at the time is referred to as “conditioned emotional response”. Assume that a rat or mouse is put into a specified box and an electric stimulus it hates is applied to the rat or mouse. […] The akinesia is referred to as “condition-induced akinesia”. Currently, an animal model for evaluating anti-anxiety and anti-depression effects is widely used while using decrease of akinesia time as an index.
Whether the tranquilizer of the invention has a similar effect as a commercially-available anti-depressant was examined using said anxiety evaluation system. Specifically, fear-conditioned mice were fed through forced feeding a sample consisting of vitamin K and medium, or a control sample consisting of medium only, respectively, for 7 days. The effect of each sample was examined on the akinesia time of mice.
Menaquinone-4 and menaquinone-7 as vitamin K to be used as an active ingredient of an anti-anxiety agent of the invention were purchased from Wako Pure Chemical Industries, Ltd. After the given amounts of menaquinone-4 or menaquinone-7 were weighed, they were suspended in 0.5% MC so that a certain concentration is acquired. The control group was fed with only the medium (0.5% MC).
(§1) 10-week old male mice (C57BL/6NCrlCrlj, SPF grade) were purchased from Charles River Laboratories Japan. After 5-day quarantine period and subsequent 5-day acclimatization, weight measurement and observation of the general condition were conducted once a day.
A solid feed (ANG93G, Oriental Yeast Co., Ltd.) was placed in the feeder, and the mice were allowed to freely take the feed. The mice were allowed to freely drink water using a water bottle. The samples were orally administered through forced feeding in accordance specified method, using a disposable syringe made of polypropylene (manufactured by Terumo Corporation, Japan) attached with a disposable feeding needle for mouse (manufactured by Fuchigami kikai Ltd.). The sample was administered while it was stirred with a stirrer. The sample was administered so that the administration quantity of Vitamin K was 30 mg per kg in weight. The administration amount of liquid was calculated based on 10 ml/kg based using the weight on the date of administration.
(§2) The general conditions and death of a mouse were observed once a day before the administration. The weights were measured once a day before administration. A conditioned-fear measurement system (manufactured by ActiMetrics) was used for measuring electric stimulus and akinesia time. After the mice allocated to the individual groups were placed in the conditioned-fear measurement system, electric stimulus was applied for fear conditioning and the akinesia time was measured simultaneously. Electric stimulus of 0.3 mA for one second in every 15 seconds was applied for 240 seconds. Upon completion of the electric stimulus, the sample was administered to the mice. After 7-day administration, the mice in the control group (0.5% MC) and in the vitamin K-administered groups were placed again in the conditioned-fear measurement system at 2 hours or 2 hours and 1 minute after the final administration, and the akinesia time in 4 minutes was measured under the condition without electric stimulus being applied. […]

[2] = general conditions, death and weights during 7-day administration; type: in vivo, mouse; settings: mice, 30 mg/kg oral for 7 days, compared with control group (0.5% MC)
Description: as §1
A solid feed (ANG93G, Oriental Yeast Co., Ltd.) was placed in the feeder, and the mice were allowed to freely take the feed. The mice were allowed to freely drink water using a water bottle. […] The sample was administered so that the administration quantity of Vitamin K was 30 mg per kg in weight. The administration amount of liquid was calculated based on 10 ml/kg based using the weight on the date of administration.
as §2, with “A conditioned-fear measurement system (manufactured by ActiMetrics) was used for measuring electric stimulus and akinesia time.” left out, “Electric stimulus of 0.3 mA for one second in every 15 seconds was applied for 240 seconds. Upon completion of the electric stimulus, the sample was administered to the mice.” left out

[3] = MK-7 originating from fermented soybeans taken, compared with MK-4 taken directly (Ozaki et al. 2006); cited from earlier work
[4] = system: fear-conditioned mice; settings: 7-day oral administration of 30 mg/kg; cited from earlier work

| Compound | akinesia time (for every 60 seconds) compared to the control group, two-way analysis of variance [1] | akinesia time (% of freezing), period from 0 to 60 seconds [1] | akinesia time (% of freezing), period from 180 to 240 seconds [1] | weights through the administration period [2] | MK-4 in the brain [3] | condition-induced akinesia [4] |
| --- | --- | --- | --- | --- | --- | --- |
| CC(C)=CCC/C(C)=C/CC/C(C)=C/CC/C(C)=C/CC1=C(C)C(=O)c2ccccc2C1=O [menaquinone-4] | significant decreases in the akinesia time were observed | 31.99% | 22.29% | remained substantially constant |  |  |
| CC(C)=CCC/C(C)=C/CC/C(C)=C/CC/C(C)=C/CC/C(C)=C/CC/C(C)=C/CC/C(C)=C/CC1=C(C)C(=O)c2ccccc2C1=O [menaquinone-7] | significant decreases in the akinesia time were observed | 38.84% | 20.83% | remained substantially constant | increases in the brain more remarkably |  |
| CCN(CC)C(=O)C1(c2ccccc2)CC1CN (stereo not shown) [milnacipran hydrochloride] |  |  |  |  |  | akinesia is alleviated |
